Source: patent US12544325B2, “Compositions and related methods” (Colgate-Palmolive Company, priority 2020, dated 2026)

Experiments:
[1] = background statement; cited from earlier work
[2] = Dissolution of amine fluoride in water without additional salts (saturation concentration); conditions: no salts
Method: Amine fluoride is added in increasingly greater amounts to determine its saturation concentration, shown below in Table 1A.

[3] = Dissolution of amine fluoride in water with addition of alkali salts
From the text: Similar formulations are created also containing one or more alkali salts, selected from sodium chloride, potassium chloride and trisodium citrate dihydrate to investigate the effect of the salts' presence on solubility of the amine fluoride.

[4] = Dissolution of tertiary amine with HCl and sodium fluoride, without and with sodium chloride; format: physicochemical; conditions: hydrochloric acid, sodium fluoride and alkali salt added; compared to absence of additional inorganic salts
From the text: A new batch of solutions was created similar to those shown in Table 2B, but with the addition of sodium fluoride.

[5] = Dissolution of tertiary amine with HCl and addition of alkali salts; format: physicochemical
Method: Further compositions containing the tertiary amine and hydrochloric acid were created. To these solutions, various quantities of alkali salts were added to evaluate the effect on solubility of the tertiary amine.

[6] = Dissolution of tertiary amine in water without inorganic salts, with or without HCl; format: physicochemical
From the text: Similar compositions were created as those listed in Table 1A, but instead of amine fluoride, a tertiary amine was used.

[7] = when adding sodium chloride (composition 10)
[8] = with hydrochloric acid and about 5% alkali salt (composition 34)

Row | maximum solubility of amine fluoride in water [2] | maximum solubility of amine fluoride in water as concentration of tertiary amine ([2]; amine fluoride fully dissociated from hydrofluoride) | lowest concentration of sodium chloride shown to increase solubility of amine fluoride in water ([3]; sodium chloride) | solubility of amine fluoride in water [3, 7] | solubility of amine fluoride in water as concentration of tertiary amine [3, 7] | change of solubility of the tertiary amine [4] | minimum addition of Sodium Chloride to fully dissolve 34% of tertiary amine ([5]; with hydrochloric acid) | solubility of tertiary amine in water [5, 8] | solubility of tertiary amine in water as concentration [5, 8] | solubility of tertiary amine as concentration ([6]; with hydrochloric acid corresponding to hydronium level of equivalent amine fluoride) | solubility of tertiary amine ([6]; with hydrochloric acid corresponding to hydronium level of equivalent amine fluoride (compositions 21-23)) | solubility of the tertiary amine in water ([6]; without adjustment of pH) | solubility of the tertiary amine in water as concentration ([6]; without adjustment of pH) | SMILES | aqueous solubility [1]
1 | approximately 24 % by weight | about 440 mM | about 0.7% | above 35 % by weight | about 640 mM | – | – | – | – | – | – | – | – | CCCCCCCCCCCCCCCCCCN(CCO)CCCN(CCO)CCO.F.F [amine fluoride, N′-octadecyltrimethylendiamine-N,N,N′-tris(2-ethanol)-dihydrofluoride] | very low aqueous solubility
2 | – | – | – | – | – | not increased any further | about 1% | about 40 % by weight | about 870 mM | about 530 mM | above 24% | about 70 % by weight | about 1520 mM | CCCCCCCCCCCCCCCCCCN(CCO)CCCN(CCO)CCO [tertiary amine, N′-octadecyltrimethylendiamine-N,N,N′-tris(2-ethanol)] | –
